Source: the NIST ThermoML archive (doi:10.1021/je100760v)
± gives the expanded uncertainty stated by the source.

Experiment: osmotic coefficient (dimensionless); mn = molality of the nth substance listed, in mol/kg
Settings: Liquid, isopiestic method

O.O=C([O-])C(=O)[O-].[K+].[K+] [potassium oxalate monohydrate] + O
Settings	osmotic coefficient
298.15 K, m1 = 0.2731	0.764 ± 0.012
298.15 K, m1 = 0.3247	0.747 ± 0.013
298.15 K, m1 = 0.3721	0.742 ± 0.013
298.15 K, m1 = 0.4551	0.736 ± 0.013
298.15 K, m1 = 0.4898	0.737 ± 0.013
298.15 K, m1 = 0.5836	0.735 ± 0.013
298.15 K, m1 = 0.7175	0.741 ± 0.013
298.15 K, m1 = 0.8532	0.747 ± 0.013
298.15 K, m1 = 0.879	0.746 ± 0.013
298.15 K, m1 = 1.163	0.76 ± 0.012
298.15 K, m1 = 1.224	0.76 ± 0.012
298.15 K, m1 = 1.403	0.77 ± 0.012
298.15 K, m1 = 1.446	0.771 ± 0.011
298.15 K, m1 = 1.553	0.775 ± 0.011
298.15 K, m1 = 1.631	0.777 ± 0.011
298.15 K, m1 = 1.763	0.782 ± 0.011
298.15 K, m1 = 1.86	0.789 ± 0.011
298.15 K, m1 = 1.865	0.787 ± 0.011
298.15 K, m1 = 1.961	0.791 ± 0.01
298.15 K, m1 = 2.166	0.801 ± 0.01
308.15 K, m1 = 0.197	0.768 ± 0.012
308.15 K, m1 = 0.2519	0.745 ± 0.013
308.15 K, m1 = 0.2974	0.737 ± 0.013
308.15 K, m1 = 0.3637	0.734 ± 0.013
308.15 K, m1 = 0.4596	0.726 ± 0.014
308.15 K, m1 = 0.5269	0.72 ± 0.014
308.15 K, m1 = 0.5465	0.719 ± 0.014
308.15 K, m1 = 0.5956	0.719 ± 0.014
308.15 K, m1 = 0.6873	0.722 ± 0.014
308.15 K, m1 = 0.7481	0.721 ± 0.014
308.15 K, m1 = 0.8067	0.719 ± 0.014
308.15 K, m1 = 0.8889	0.721 ± 0.014
308.15 K, m1 = 0.9189	0.724 ± 0.014
308.15 K, m1 = 1.088	0.73 ± 0.014
308.15 K, m1 = 1.269	0.739 ± 0.013
308.15 K, m1 = 1.541	0.751 ± 0.012
308.15 K, m1 = 1.754	0.768 ± 0.012
308.15 K, m1 = 1.933	0.777 ± 0.011
308.15 K, m1 = 1.991	0.782 ± 0.011
308.15 K, m1 = 2.108	0.792 ± 0.01
308.15 K, m1 = 2.305	0.804 ± 0.01
318.15 K, m1 = 0.2751	0.729 ± 0.014
318.15 K, m1 = 0.3201	0.725 ± 0.014
318.15 K, m1 = 0.3228	0.721 ± 0.014
318.15 K, m1 = 0.4383	0.709 ± 0.015
318.15 K, m1 = 0.4892	0.709 ± 0.015
318.15 K, m1 = 0.596	0.705 ± 0.015
318.15 K, m1 = 0.7938	0.704 ± 0.015
318.15 K, m1 = 0.8879	0.707 ± 0.015
318.15 K, m1 = 1.088	0.715 ± 0.014
318.15 K, m1 = 1.261	0.72 ± 0.014
318.15 K, m1 = 1.296	0.725 ± 0.014
318.15 K, m1 = 1.643	0.749 ± 0.013
318.15 K, m1 = 1.671	0.748 ± 0.013
318.15 K, m1 = 1.72	0.754 ± 0.012
318.15 K, m1 = 1.738	0.752 ± 0.012
318.15 K, m1 = 1.869	0.763 ± 0.012
318.15 K, m1 = 2.217	0.78 ± 0.011
